Source: patent US20250360108A1, “CATALYTIC INHIBITOR OF PROTEIN PHOSPHATASE 5 ACTIVATES THE EXTRINSIC APOPTOTIC PATHWAY BY DISRUPTING COMPLEX II” (The Research Foundation for the State University of New York, priority 2022, published 2025)
Residues, ends and D or L forms follow the SMILES beside them. *: point of attachment. Cbz = O=C(OCc1ccccc1)*; CH2F = FC*

Key:
recombinant PP5-His6 [1] = target: T1, recombinant PP5-His6 (Homo sapiens, UniProt P53041); assay: P13-BODIPY binding to PP5 by fluorescence anisotropy; details: measured with 10 nM BODIPY-labeled P13, one-site fit; read-out: binding affinity to PP5
T1 construct: GST (N, cleaved yes); made in house
T1 sequence (P53041 1-499): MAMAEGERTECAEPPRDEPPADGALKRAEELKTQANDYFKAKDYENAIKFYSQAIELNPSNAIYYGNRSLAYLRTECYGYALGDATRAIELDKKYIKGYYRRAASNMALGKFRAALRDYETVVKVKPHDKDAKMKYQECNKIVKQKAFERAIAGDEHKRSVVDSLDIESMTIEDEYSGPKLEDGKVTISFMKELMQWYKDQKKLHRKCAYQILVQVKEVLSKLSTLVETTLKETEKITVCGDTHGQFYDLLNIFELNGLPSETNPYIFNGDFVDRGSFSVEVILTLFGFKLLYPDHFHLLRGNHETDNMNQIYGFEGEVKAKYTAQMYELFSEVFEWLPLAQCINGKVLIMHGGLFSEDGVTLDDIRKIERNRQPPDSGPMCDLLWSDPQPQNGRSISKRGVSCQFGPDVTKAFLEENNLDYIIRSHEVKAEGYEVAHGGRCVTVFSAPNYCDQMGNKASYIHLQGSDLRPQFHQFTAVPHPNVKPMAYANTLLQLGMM
Procedure: We next synthesized BODIPY-labelled version of compound P13 (P13-BODIPY) in order to obtain the binding affinity of this inhibitor to PP5 in vitro (FIG. S3A). This was accomplished by coupling the azidopropyl-P13 10 with 4,4-difluoro-5,7-dimethyl-4-bora-3a,4a-diaza-s-indacene-3-propionic acid (BODIPY Acid 13). Using fluorescence anisotropy with recombinant PP5 protein (FIG. S3B), we determined the binding affinity of P13 compound to PP5 to be 376.2±60 nM (FIG. 1H).
Binding Measurements and Anisotropy: Recombinant PP5-His6 at the indicated concentrations was incubated on ice in 100 mM NaCl, 20 mM HEPES pH 8.0, 1% glycerol, 0.2 mM tris(2-carboxyethyl)phosphine (TCEP) and 0.5 mM MnCl2 with 10 nM BODIPY-labeled P13 in 2% DMSO for 30 min in opaque black 96 well plates (Corning). Uncalibrated fluorescence anisotropy was then measured using a SpectraMax i3 equipped with fluorescein anisotropy module (Molecular Devices). Curves were fit to a one-site binding equation using GraphPad Prism version 9.5.0. y=y0+A*x/(Kd+x) where y is measured uncalibrated anisotropy, y0 is the y intercept, A is the amplitude of the curve, x is the concentration of PP5 used, and Kd is the measured dissociation constant. Data are presented as mean±SEM.

786-O cells [2] = assay: Induction of apoptosis by immunoblotting of apoptotic markers; format: cell-based, human; details: for cleavage of apoptotic markers caspase 3 and 8 and PARP / induction of apoptosis (cleaved PARP, cleaved caspase 8): 10 μM, 24 hrs
Procedure: Method Details Cell Transfection and Treatment: Cultured cells were split and then transfected the following day when about 40% confluent with each construct using Mirus TranslT-2020 (MirusBio) according to manufacturer's protocol. Cells were incubated at 37° C. and then extracted or collected for analysis after 24 hrs (HEK293) or 72 hrs (ccRCC cell lines). Short interfering RNA (siRNA) scramble control and PPP5C (PP5) targeting duplexes were purchased from OriGene (SKU: SR321403A, SR321403B, and SR321403C). Indicated cells were transiently transfected with the siRNA using Mirus TranslT-2020. For PP5 knock-down, either 30 nM of control siRNA or 10 nM of each PP5 siRNA duplex (A, B and C) were mixed prior to transfection. Cells were incubated at 37° C. for 72 hrs, then harvested for protein extraction. […] Cells were then harvested for protein extraction.
(§1) Protein Extraction, Immunoprecipitation and Immunoblotting: Protein extraction from mammalian cells was carried out using methods previously described. Cell lysates were quantified using 1× Bradford reagent (Biorad). For immunoprecipitation, cell lysates were incubated with anti-FLAG antibody conjugated beads (Sigma) or anti-HA conjugated beads (ThermoFisher Scientific) at 4° C. for 2 hrs. Endogenous IPs were achieved by incubating lysate with anti-PP5 antibody (Cell Signaling), anti-FADD antibody (Cell Signaling), or anti-RIPK1 antibody (Cell Signaling) overnight followed by protein G agarose (Invitrogen) at 4° C. for 2 hrs. Immunopellets were washed 4 times with fresh lysis buffer (20 mM Tris-HCl (pH 7.4), 100 mM NaCl, 1 mM MgCl2, 0.1% NP40, protease inhibitor cocktail (Roche), and PhosSTOP (Roche)) and eluted in 5× Laemmli buffer. Precipitated proteins were separated by SDS-PAGE and transferred to nitrocellulose membranes. Co-immunoprecipitated proteins or proteins from cell lysate were detected with antibodies recognizing FLAG, 6×-His (ThermoFisher Scientific), GAPDH (ENZO Life Sciences), Cdc37 (StressMarq), GR, phospho-GR (S211), PP5, caspase-3, cleaved caspase-3, caspase-8, cleaved caspase-8, cleaved caspase-7, cleaved-PARP, phospho-RIPK1 (S166), phospho-FADD (S194), PP2A-C, VHL (Cell Signaling), phospho-RIPK1 (S161) (Invitrogen), PP5 and phospho-Cdc37 (S13) (Abcam). Secondary antibodies raised against mouse and rabbit (Cell Signaling) were used (See Key Resources Table).

786-O cells [3] = assay: Cell viability / proliferation MTT assay; format: cell-based, human; details: varying doses, 48 hrs
Procedure: Cell Viability Assay: Renal cancer cell lines 786-O, Caki-2, Caki-1, and A498 as well as the normal renal cell line HK-2 were plated at 10,000 cells per well in 96-well plates. […] After 24 or 48 hrs, cell viability assay was performed using the Quick Cell Proliferation Kit Plus (BioVision) according to the manufacturer's protocol. The absorbance at 450 nm was measured on a Tecan Infinite M200 Pro and proliferation rate was calculated.

recombinant PP5-His6 [4] = target: T1, recombinant PP5-His6; assay: PP5 Phosphatase Activity and Inhibition Assay (PiPer phosphate release, phospho-S211-GR peptide); format: biochemical; details: phospho-S211-GR peptide substrate; for Ki: IC50 converted to Ki
Procedure: PP5 inhibitors specifically bind to the phosphatase-catalytic domain: We next sought to measure the inhibition of PP5 activity in vitro with P5 and P13.
Bacterial Expression and Protein Purification of PP5: Human PPP5c was cloned into pGEX6P1 with an N-terminal GST tag and C-terminal His6 tag. Transformed cells were grown at 37° C. in LB with 100 mg/L ampicillin until OD600=0.6 and induced with 1 mM IPTG. Cells were harvested by centrifugation and lysed by sonication in lysis buffer (50 mM Hepes (pH 8.0), 150 mM NaCl, 0.5 mM TCEP and EDTA-free protease inhibitor cocktail tablet (Roche)). Lysate was incubated with talon resin (Takara Bio) for 1 hr at 4° C. The resin was washed three times with lysis buffer and PP5 was eluted with lysis buffer containing 250 mM imidazole. Precision protease was added to the elution overnight to cleave the GST tag and the sample was then mixed with Glutathione Sepharose resin (Cytiva) to remove the free GST and un-cleaved protein. The sample was applied to a Superdex S75 16/60 size exclusion column (GE Healthcare) and eluted in 100 mM NaCl, 20 mM Hepes pH 8, 02 mM TCEP.
PP5 Phosphatase Activity and Inhibition Assay: The phosphatase activity of the recombinant PP5-His6 was measured using the PiPer™ Phosphate Assay Kit (Thermo Fisher Scientific) as described in the manufacturer's protocol. Standard curve with linear fit line was created from 0-1 nM Pifinal concentration reactions. 1 nM of PP5-His6 was added to each reaction with indicated amounts of custom synthesized substrate phospho-S211-glucocorticoid receptor (PhosS211-GR) peptide (see Key Resources Table) as specific substrate (Thermo Fisher Scientific). Reactions were run in triplicate and incubated at 37° C. for over 10 min. […] Enzyme kinetics were calculated and plotted using Lineweaver Burk plot and web-based tool (https://www.aatbio.com/tools/ic50-calculator) for calculating IC50 and (https://bioinfo-abcc.ncifcrf.gov/IC50_Ki_Converter/index.php) for converting IC50 to Ki values for inhibitors of enzyme activity and ligand binding.

PP5-FLAG = target: T2, PP5-FLAG (Homo sapiens, UniProt P53041); assay: Biotin-P5 and biotin-P13 pulldown from HEK293 lysate; format: binding; details: for binding of PP5-FLAG to biotinylated compound (streptavidin pulldown): 0.01-10 μM
T2 construct: expressed in transfected cells; host or cells: HEK293
T2 sequence (P53041 1-499): T1 sequence (P53041 1-499)
Procedure: (§2) Biotin-P5 and biotin-P13 Pulldown: HEK293 cells were transiently transfected with PP5-FLAG or active site point mutants and protein lysate extracted. Lysate was incubated with 0.01-10 μM biotin-P5 or biotin P-13 as indicated at 4° C. for 1 hr then added to streptavidin-conjugated agarose and incubated at 4° C. for 1 hr. Following three washes with fresh extraction buffer bound proteins were eluted in 5× Laemmli buffer and analyzed by Western blot. […] Samples were run by SDS PAGE, transferred to nitrocellulose membrane, and analyzed by Western blot.

[5] = test system: PP5-FLAG active site point mutants; assay: Biotin-P13 pulldown of PP5 active site point mutants; format: binding, human; details: HEK293 lysate
Procedure: (§3) We then mutated docking site residues in the active site of PP5 to obtain further insight into the mechanism of P13 binding to PP5. […] These mutants were transiently expressed in HEK293 cells, and then the protein lysates were challenged with different amounts of biotin-P13 (FIG. 1G).
as §2

[6] = target: T3, PP5-FLAG active site point mutants (Homo sapiens, UniProt P53041, R400A); assay: as above; format: binding; details: HEK293 lysate
T3 construct: expressed in transfected cells; host or cells: HEK293
T3 sequence (P53041 2-499 R400A): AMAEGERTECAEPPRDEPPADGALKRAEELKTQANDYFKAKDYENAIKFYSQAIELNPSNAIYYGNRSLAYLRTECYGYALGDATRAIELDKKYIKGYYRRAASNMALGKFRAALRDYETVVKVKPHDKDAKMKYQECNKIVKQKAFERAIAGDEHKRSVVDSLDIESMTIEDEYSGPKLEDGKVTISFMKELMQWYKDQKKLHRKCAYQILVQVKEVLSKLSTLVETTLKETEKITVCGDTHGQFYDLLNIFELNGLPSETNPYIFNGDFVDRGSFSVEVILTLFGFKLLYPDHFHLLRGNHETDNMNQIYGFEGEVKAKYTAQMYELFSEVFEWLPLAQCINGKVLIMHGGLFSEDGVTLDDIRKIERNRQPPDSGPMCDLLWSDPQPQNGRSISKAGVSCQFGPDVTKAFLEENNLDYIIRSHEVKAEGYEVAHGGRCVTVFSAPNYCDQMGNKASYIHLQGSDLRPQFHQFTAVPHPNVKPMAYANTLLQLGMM
Procedure: as §3, §2

PP2A = assay: Biotin-P5 / biotin-P13 pulldown in 786-O lysate, co-pulldown of PP2A; format: binding, human; details: cell lysate, 1 μM
Hsp90 = assay: Time course with Hsp90 inhibitor SNX-2112, protein levels by immunoblot; format: cell-based, human; details: HEK293 cells, 2 μM
Procedure: Since a vast majority of PP5 substrates are also clients of the molecular chaperone Hsp90, we asked whether RIPK1 and FADD are clients of this chaperone. We therefore performed a time course assay using the Hsp90 inhibitor SNX-2112 (2 μM) in HEK293 cells. […] To further understand the relationship between FADD and Hsp90, we immunoprecipitated endogenous FADD from 786-O cells and examined the co-IP of Hsp90 (FIG. 4G).
as §1

PP5 = PP5 inhibition in cells by immunoblotting of PP5 substrates phospho-S211-GR and phospho-S13-Cdc37; format: cell-based, human; details: 786-O cells, indicated amounts, 24 hrs
Procedure: as §1, with “Secondary antibodies raised against mouse and rabbit (Cell Signaling) were used (See Key Resources Table).” left out

SMILES: Cc1ccc(NS(=O)(=O)c2c(C)noc2C)cc1C [Compound P13, (3,5-Dimethyl-4-isoxazolylsulfonyl)(3,4-xylyl)amine]
- Kd (recombinant PP5-His6 [1]): 376 ± 60 nM
- cleavage of apoptotic markers caspase 3 and 8 and PARP (786-O cells [2]): cleavage of the apoptotic markers caspase 3 and 8 and PARP
- proliferation of 786-O cells (MTT) (786-O cells [3]): significantly inhibited the proliferation
- mode of PP5 inhibition (enzyme kinetics, Lineweaver-Burk) (recombinant PP5-His6 [4]): competitive inhibitors
- Ki (recombinant PP5-His6 [4]): 234 ± 50 nM

SMILES: Cc1ccc(N(CCCNC(=O)CCC[C@@H]2SC[C@@H]3NC(=O)N[C@@H]32)S(=O)(=O)c2c(C)noc2C)cc1C [biotin-P13, 4-[(3aS,4S,6aR)-2-Oxo-hexahydro-1H-thieno[3,4-d]imidazol-4-yl]-N-(3-[N-(3,4-dimethylphenyl)3,5-dimethyl-1,2-oxazole-4-sulfonamido]propyl}butanamide]
- binding to PP5-FLAG compared to biotin-P5 (PP5-FLAG; 10 μM): bound more
- binding of PP5-FLAG to biotinylated compound (streptavidin pulldown) (PP5-FLAG): binds
- binding of H304Q, M309C and W386F PP5 mutants [5]: unable to bind
- binding of R275A and Y451F PP5 mutants compared to wild-type PP5 [5]: increased binding
- binding of R400A PP5 mutant compared to wild-type PP5 [6]: reduced binding
- binding to PP2A (PP2A): did not bind

SMILES: Cc1noc(C)c1S(=O)(=O)N(CCCCl)c1ccc(Oc2ccccc2)cc1 [Compound P059, (3-Chloropropyl)(3,5-dimethyl-4-isoxazolylsulfonyl)(p-phenoxyphenyl)amine]
- induction of apoptosis (cleaved PARP, cleaved caspase 8) (786-O cells [2]): had the ability to induce apoptosis

SMILES: Cc1noc(C)c1S(=O)(=O)N(CCCC#N)c1ccc(Oc2ccccc2)cc1 [Compound P075, 4-[(3,5-Dimethyl-4-isoxazolylsulfonyl)(p-phenoxyphenyl)amino]butyronitrile]
- induction of apoptosis (cleaved PARP, cleaved caspase 8) (786-O cells [2]): had the ability to induce apoptosis

SMILES: CCCCN(c1ccc(Oc2ccccc2)cc1)S(=O)(=O)c1c(C)noc1C [Compound P058, N-Butyl(3,5-dimethyl-4-isoxazolylsulfonyl)(p-phenoxyphenyl)amine]
- induction of apoptosis (cleaved PARP, cleaved caspase 8) (786-O cells [2]): had the ability to induce apoptosis

SMILES: COC(=O)c1cccc(NS(=O)(=O)c2c(C)noc2C)c1 [Compound P5, Methyl m-(3,5-dimethyl-4-isoxazolylsulfonylamino)benzoate]
- cleavage of apoptotic markers caspase 3 and 8 and PARP (786-O cells [2]): cleavage of the apoptotic markers caspase 3 and 8 and PARP
- proliferation of 786-O cells (MTT) (786-O cells [3]): significantly inhibited the proliferation
- mode of PP5 inhibition (enzyme kinetics, Lineweaver-Burk) (recombinant PP5-His6 [4]): competitive inhibitors
- Ki (recombinant PP5-His6 [4]): 277 ± 50 nM

SMILES: CC1(C)CC(=O)c2c(C(F)(F)F)nn(-c3ccc(C(N)=O)c(N[C@H]4CC[C@H](O)CC4)c3)c2C1 [SNX-2112]
- RIPK1 protein levels (Hsp90; 16 hr): decreased RIPK1 protein levels
- FADD protein levels (Hsp90; throughout time course): did not observe a decrease in FADD levels
- Hsp90 clients Tsc2, Akt and phos-Ser473-Akt protein levels (Hsp90; time course): destabilized and degraded

SMILES: Cc1noc(C)c1S(=O)(=O)Nc1cccc(C(=O)N2CCN(C(=O)CCC[C@@H]3SC[C@@H]4NC(=O)N[C@@H]43)CC2)c1 [biotin-P5, N-[3-(4-(4-[(3aS,4S,6aR)-2-Oxo-hexahydro-1H-thieno[3,4-d]imidazol-4-yl]butanoyl)piperazine-1-carbonyl)phenyl]-3,5-dimethyl-1,2-oxazole-4-sulfonamide]
- binding of PP5-FLAG to biotinylated compound (streptavidin pulldown) (PP5-FLAG): binds
- binding to PP2A (PP2A): did not bind

SMILES: COC(=O)C[C@H](NC(=O)[C@H](C)NC(=O)[C@@H](NC(=O)OCc1ccccc1)C(C)C)C(=O)CF [z-VAD-fmk, reference compound] (Cbz-Val-Ala-Asp(OMe)-CH2F)
- effect on IC261-induced apoptosis (786-O cells [2]; 10 μM for 1 hr, then IC261 for 16 hrs): reversed this effect

SMILES: Cc1noc(C)c1S(=O)(=O)Nc1ccc(O)c(C(=O)O)c1 [Compound P0]
- phosphorylation of PP5 substrates phospho-S13-Cdc37 and phospho-S211-GR (PP5): dose dependent increase in phosphorylation
